Results taken from ChEMBL document CHEMBL1130200, “Discovery of 3-aminobenzyloxycarbonyl as an N-terminal group conferring high affinity to the minimal phosphopeptide sequence recognized by the Grb2-SH2 domain” (J Med Chem, 1997).
Where a SMILES comes first, the peptide text is derived from it. [ ]: non-standard residue; d: D form. The star is where a group is joined. pY = N[C@@H](Cc1ccc(OP(=O)(O)O)cc1)C(=O)O; 2Abz = Nc1ccccc1C(=O)O; Cbz = O=C(OCc1ccccc1)*

Target: Growth factor receptor-bound protein 2 (Homo sapiens, UniProt P62993)
Test: Inhibition of Grb2-SH2 domain binding to phospho-EGF receptor intracellular C-terminal domain

Growth factor receptor-bound protein 2, sequence (P62993 whole entry, the tested form may be a part): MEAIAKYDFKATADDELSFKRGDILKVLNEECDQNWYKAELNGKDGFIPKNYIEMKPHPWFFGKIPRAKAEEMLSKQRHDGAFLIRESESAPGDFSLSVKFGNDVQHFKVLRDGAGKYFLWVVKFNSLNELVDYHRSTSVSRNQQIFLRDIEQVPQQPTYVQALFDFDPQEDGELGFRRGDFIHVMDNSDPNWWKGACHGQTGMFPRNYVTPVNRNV

| Compound | IC50 [µM] |
| --- | --- |
| CC[C@H](C)[C@H](NC(=O)[C@H](Cc1ccc(OP(=O)(O)O)cc1)NC(=O)OCc1cccc(N)c1)C(=O)N[C@@H](CC(N)=O)C(N)=O | 0.065 |
| CC[C@H](C)[C@H](NC(=O)[C@H](Cc1ccc(OP(=O)(O)O)cc1)NC(C)=O)C(=O)N[C@@H](CC(N)=O)C(N)=O (Ac-[pY]-Ile-Asn-NH2) | 8.64 |
| CC[C@H](C)[C@H](NC(=O)[C@H](Cc1ccc(OP(=O)(O)O)cc1)NC(=O)OCc1ccccc1)C(=O)N[C@@H](CC(N)=O)C(N)=O (Cbz-[pY]-Ile-Asn-NH2) | 6.35 |
| CC[C@H](C)[C@H](NC(=O)[C@H](Cc1ccc(OP(=O)(O)O)cc1)NC(=O)[C@@H](N)CCC(=O)O)C(=O)N[C@@H](CC(N)=O)C(N)=O (H-E[pY]IN-NH2) | 7.9 |
| CC[C@H](C)[C@H](NC(=O)[C@H](Cc1ccc(OP(=O)(O)O)cc1)NC(=O)[C@H](CCC(=O)O)NC(=O)c1ccccc1N)C(=O)N[C@@H](CC(N)=O)C(N)=O (H-[2Abz]E[pY]IN-NH2) | 0.022 |
| CC[C@H](C)[C@H](NC(=O)[C@@H](N)Cc1ccc(OP(=O)(O)O)cc1)C(=O)N[C@@H](CC(N)=O)C(N)=O (H-[pY]-Ile-Asn-NH2) | 56.9 |
